Test results taken from paper PMC2854131 (PLoS ONE, 2010).
Where two headings read alike, the source gives them in different places.

Tests used:
[1] = target: T1, recombinant BoNTAe (BoNTA endopeptidase) (Clostridium botulinum, UniProt P0DPI0); conditions: cited from earlier work
[2] = mouse, in vivo
[3] = Balb/c, mouse, in vivo, ip, 2 mg/kg
[4] = target: T1, recombinant BoNTAe (BoNTA endopeptidase); experiment: biochemical; conditions: read-out: % BoNTAe inhibition
[5] = in vivo; conditions: Balb/c, mouse, ip, 2 mg/kg
[6] = target: BoNTA (Clostridium botulinum, UniProt P0DPI0); design: species or system Balb/c mice; conditions: mouse, in vivo
[7] = physchem; conditions: water

Compound: NCCCCn1c(-c2ccccc2)cc2ccc(C(=O)c3cc(CC(=O)NO)c(-c4ccccc4)s3)cc21 [APH, reference compound]
- Ki ([1]; read-out: Ki^app): 7 µM

Compound: NCCCCn1c(-c2ccccc2)cc2ccc(C(=O)c3cc(CC(=O)NO)c(-c4cccc(O)c4)s3)cc21 [Inhibitor H3H]
- serotype specificity of BoNTAe inhibition, in words [1]: serotype-specific
- Ki ([1]; read-out: Ki app): 3.8 ± 0.77 µM
- Ki ([1]; read-out: Ki^app): 4 µM
- acute toxicity to mice, in words [2]: no acute toxicity
- C24 (concentration 24 hours after one dose) [3]: 3.0 ng/mL
- inhibition at 20 µM [4]: 78 ± 4%
- AUC(0-t) [5]: 1.55 µg·h/mL
- Cmax [5]: 0.497 µg/mL
- half-life ([5]; T1/2): 4.35 h
- half-life ([5]; in vivo half-life (t1/2)): ~4 h
- survival during the 12-hour period after the BoNTA challenge, in words [6]: all mice treated with any of the three inhibitors survived
- treated mice that died 48 hours after the toxin challenge [6]: 40%

Compound: NCCCCn1c(-c2ccccc2)c(F)c2ccc(C(=O)c3cc(CC(=O)NO)c(-c4cccc(N)c4)s3)cc21 [Inhibitor F3A, 2-(5-(1-(4-Aminobutyl)-3-fluoro-2-phenyl-1H-indole-6-carbonyl)-2-(3-aminophenyl)thiophen-3-yl)-N-hydroxyacetamide]
- acute toxicity to mice, in words [2]: no acute toxicity
- C24 (concentration 24 hours after one dose) [3]: 7.0 ng/mL
- inhibition at 20 µM [4]: 47 ± 1%
- AUC(0-t) [5]: 1.39 µg·h/mL
- Cmax [5]: 0.256 µg/mL
- half-life ([5]; T1/2): 6.25 h
- half-life ([5]; in vivo half-life (t1/2)): ~6 h
- solubility [7]: ≥ 5 mM
- survival during the 12-hour period after the BoNTA challenge, in words [6]: all mice treated with any of the three inhibitors survived
- treated mice that died 48 hours after the toxin challenge [6]: 90%

Compound: NCCCCn1c(-c2ccccc2)c(F)c2ccc(C(=O)c3cc(CC(=O)NO)c(-c4ccc(O)cc4)s3)cc21 [Inhibitor F4H, 2-(5-(1-(4-Aminobutyl)-3-fluoro-2-phenyl-1H-indole-6-carbonyl)-2-(4-hydroxyphenyl)thiophen-3-yl)-N-hydroxyacetamide]
- acute toxicity to mice, in words [2]: no acute toxicity
- C24 (concentration 24 hours after one dose) [3]: <0.5 ng/mL
- inhibition at 20 µM [4]: 82 ± 6%
- AUC(0-t) [5]: 1.39 µg·h/mL
- Cmax [5]: 0.738 µg/mL
- half-life ([5]; T1/2): 6.5 h
- half-life ([5]; in vivo half-life (t1/2)): ~6 h
- solubility [7]: ≥ 5 mM
- protection (survival) of mice 24 hours after the toxin challenge [6]: 70%
- protection (survival) of mice 48 hours after the toxin challenge [6]: 60%
- protection (survival) of mice during the 12-hour period after the toxin challenge [6]: 100%
- survival during the 12-hour period after the BoNTA challenge, in words [6]: all mice treated with any of the three inhibitors survived
- treated mice that died 48 hours after the toxin challenge [6]: 40%
